Test results reported in US20170045520A1, “METHOD FOR PREDICTING RESPONSE TO THERAPY FOR CANCER” (National University of Singapore, priority 2014, published 2017).
Read-outs that look alike come from different tables or passages of the source.

System: WBP2 overexpressing cancer cells
Experiment: Drug sensitivity of cells overexpressing WT ITCH versus C830A or E855K mutant ITCH to Wnt inhibitors
Type: cell-based
Protocol: This was indeed the case for up to 0.0001 μM and 5 μM for FH535 and C59, respectively, but above these doses, the distinction was lost probably as a result of non-specific cytotoxicity (FIGS. 8 and 9). This implies that ITCH inactivating mutations could be used to predict for response to Wnt inhibitors especially in cancers that are dependent on WBP2.

[1] = WT ITCH vs C830A or E855K mutant ITCH overexpression, FIGS. 8 and 9

For `Cc1cc(-c2ccc(CC(=O)Nc3ccc(-c4cccnc4)cc3)cc2)ccn1` [C59], the “dose up to which the difference in sensitivity between WT ITCH and mutant ITCH cells held (above it the distinction was lost, probably non-specific cytotoxicity)” value was at most 5 µM and the “sensitivity of cells to the Wnt inhibitor when WT ITCH is overexpressed (low WBP2) compared to when C830A or E855K mutant is overexpressed (high WBP2)” value [1] was “less sensitive”.
In the case of `Cc1cc([N+](=O)[O-])ccc1NS(=O)(=O)c1cc(Cl)ccc1Cl` [FH535], the “dose up to which the difference in sensitivity between WT ITCH and mutant ITCH cells held (above it the distinction was lost, probably non-specific cytotoxicity)” value [1] is reported as “up to 0.0001 μM” and the “sensitivity of cells to the Wnt inhibitor when WT ITCH is overexpressed (low WBP2) compared to when C830A or E855K mutant is overexpressed (high WBP2)” value [1] is reported as “less sensitive”.
